Data: patent US11214803B2, “Modulators of YAP1 expression” (Ionis Pharmaceuticals, Inc., priority 2019, dated 2022)

Key:
[1] = system: Yap1 mRNA; experiment: Dose-dependent inhibition of human Yap1 in SNU-449 cells (Example 9, RTS36584); format: cell-based; conditions: free uptake; for % UTC (Yap1 mRNA): approximately 48 hours; for IC50: linear regression on a log/linear plot
Method in brief: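 SNU-449 cells (10,000/well) took up modified oligonucleotides by free uptake at a range of doses for about 48 h. Yap1 mRNA was quantified with primer-probe set RTS36584, normalised to RIBOGREEN total RNA and expressed as % untreated control; IC50 from linear regression on log/linear plot.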

[2] = Tolerability in Sprague-Dawley rats, body and organ weights (Example 22); format: in vivo; conditions: male Sprague-Dawley rats, 50 mg/kg s.c. weekly for 6 weeks (7 doses); for Kidney weight / Liver weight / Spleen weight: end of study; for body weight: terminal, prior to necropsy
Method: Terminal body weight was measured prior to necropsy. Ionis oligonucleotides that caused any changes in organ weights outside the expected range for modified oligonucleotides were excluded from further studies.

[3] = system: Yap1 mRNA; experiment: Yap1 mRNA in SCC25 cells, RNA analysis (Example 25); format: cell-based, human; conditions: free uptake, 48 hours, RTS4814, normalized to actin-beta
Method: (§1) Modified oligonucleotides described in the studies above were tested at various doses in squamous cell carcinoma cell SCC25. A control oligonucleotide 792169 (a 3-10-3 cET gapmer with a full phosphorothioate backbone, […], designated herein as SEQ ID No.: 2940; is not complementary to any known human gene) was also tested.
Cultured SCC25 cells at a density of 5,000 cells per well were treated using free uptake with modified oligonucleotides diluted to concentrations described in the tables below. After approximately 48 hours, Yap1 mRNA levels were measured as previously described using the Human Yap1 primer-probe set RTS4814. Yap1 mRNA levels were normalized to actin-beta content, as measured by primer probe set RTS5002 (forward sequence […], designated herein as SEQ ID NO.: 20; reverse sequence […], designated herein as SEQ ID NO.: 21; probe sequence […], designated herein as SEQ ID NO.: 22). Results are presented in the tables below as percent control of the amount of Yap1 mRNA relative to untreated control cells (% UTC).

[4] = system: SCC25 cells; experiment: Cell proliferation assay in SCC25 cells, CellTiter-Glo (Example 25); format: cell-based, human; conditions: free uptake, 144 hours
Method: as §1
Cultured SCC25 cells at a density of 1,000 cells/well were treated using free uptake with modified oligonucleotides diluted to concentrations described in the tables below. After approximately 144 hours, cell proliferation was measured using the luminescent cell viability CellTiter-Glo® 2.0 Assay (Promega). Results are presented in the tables below as percent control of the amount of luminescence in samples treated with modified oligonucleotides relative to untreated control cells (% UTC).

[5] = system: Yap1 mRNA; experiment: Inhibition of human Yap1 mRNA in SNU449 hepatocellular carcinoma xenograft tumors (Example 26); format: in vivo; conditions: SNU449 xenografts in NSG mice, 50 mg/kg twice weekly for five days, relative to PBS treated animals
Method in brief: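 Female NSG mice bearing subcutaneous SNU449 xenografts (about 100 mm^3) dosed with modified oligonucleotides at 50 mg/kg twice weekly for five days, four per group. Tumour Yap1 mRNA measured by RT-qPCR, normalized to actin-beta, expressed as % of PBS-treated controls.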

[6] = Cynomolgus monkey tolerability, pro-inflammatory proteins analysis, Complement C3 and CRP (Example 34); format: in vivo; conditions: cynomolgus monkeys, 35 mg/kg subcutaneously; for CRP: day 44
Method in brief: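 Inflammatory effects of oligonucleotides in cynomolgus monkeys were assessed using blood samples taken after an overnight fast. About 0.8 mL of blood per animal went into tubes without anticoagulant so serum could be separated. Complement C3 was measured on a Toshiba 120 FR NEO chemistry analyzer. C-Reactive Protein was measured alongside the liver-function clinical chemistry parameters.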

[7] = Cynomolgus monkey tolerability, hematology (Example 34); format: in vivo, cynomolgus monkeys; conditions: for BAS / EOS / HCT / HGB / LUC / LYM / MCH / MCHC / MCV / MON / NEU / PLT / RBC / RCDW / Retic / WBC: cynomolgus monkey, in vivo, sc, 35 mg/kg; for MPV: cynomolgus monkeys, 35 mg/kg subcutaneously, day 44
Method in brief: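 On day 44, blood from oligonucleotide-treated cynomolgus monkeys was collected into K2-EDTA. An automated analyzer measured red cell indices, reticulocytes, platelets and MPV, and total and differential white cell counts.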

[8] = cynomolgus monkey, in vivo, sc, 35 mg/kg
Method: (§2) Prior to the study, the monkeys were kept in quarantine during which the animals were observed daily for general health. The monkeys were 2-4 years old and weighed 2-4 kg. Eleven groups of 4 randomly assigned male cynomolgus monkeys each were injected subcutaneously with Ionis oligonucleotide or saline in a clock-wise rotation between four different sites on the back. Following loading doses on days 1, 3, 5 and 7, the monkeys were dosed once per week (on days 14, 21, 28, 35, and 42) with 35 mg/kg of Ionis oligonucleotide.
To evaluate the effect of Ionis oligonucleotides on hepatic and kidney function, blood samples were collected from all the study groups on day 44. The monkeys were fasted overnight prior to blood collection. Blood was collected in tubes without anticoagulant for serum separation. The tubes were kept at room temperature for a minimum of 90 minutes and then centrifuged at 3000 rpm for 10 minutes to obtain serum. Levels of various liver function markers were measured using a Toshiba 200FR NEO chemistry analyzer (Toshiba Co., Japan).

[9] = Cynomolgus monkey tolerability, urine analysis (Example 34); conditions: cynomolgus monkeys, 35 mg/kg subcutaneously, day 44
Method: as §2
Food was removed overnight the day before fresh urine collection, but water was supplied. Fresh urine samples for urinalysis and urine chemistry were collected from all animals using a clean cage pan on wet ice (first in the morning) on day 44. Urinalysis/Urine Chemistry parameters creatinine (UCRE), microprotein (UTP), urine microalbumin (UALB), and protein/creatinine (P/C) ratio were measured using a Toshiba 120FR automated chemistry analyzer (Toshiba Co., Japan).

## 1198605 (GTAATATTGCAATCTG; modified gapmer, further chemistry not given here) [compound 1198605]
[1]; 31.3 nM
  % UTC (Yap1 mRNA): 57 % UTC
[1]; 125.0 nM
  % UTC (Yap1 mRNA): 27 % UTC
[1]; 500.0 nM
  % UTC (Yap1 mRNA): 7 % UTC
[1]; 2000.00 nM
  % UTC (Yap1 mRNA): 1 % UTC
[1]
  IC50: 30 nM
[2]
  Kidney weight: 3.6 g
  Liver weight: 18 g
  Spleen weight: 2.1 g
  body weight: 372 g
[3]; 0.04 μM
  Yap1 mRNA, % UTC: 48 % UTC
[3]; 0.2 μM
  Yap1 mRNA, % UTC: 23 % UTC
[3]; 1 μM
  Yap1 mRNA, % UTC: 10 % UTC
[3]; 5 μM
  Yap1 mRNA, % UTC: 5 % UTC
[4]; 0.04 μM
  cell proliferation (luminescence) % UTC: 77 % UTC
[4]; 0.2 μM
  cell proliferation (luminescence) % UTC: 39 % UTC
[4]; 1 μM
  cell proliferation (luminescence) % UTC: 23 % UTC
[4]; 5 μM
  cell proliferation (luminescence) % UTC: 13 % UTC
[5]
  Yap1 mRNA in tumors, % control: 55 % control
[6]; Day 42 (pre-dose)
  Complement C3: 105 mg/dL
[6]; day 42 (24 hr post-dose)
  Complement C3: 95 mg/dL
[6]
  CRP: 4.2 mg/L
[7]
  BAS: 0.4%
  EOS: 0.8%
  HCT: 46%
  HGB: 13 g/dL
  LUC: 0.5%
  LYM: 51%
  MCH: 22 pg
  MCHC: 29 g/dL
  MCV: 75 fL
  MON: 2.8%
  NEU: 44%
  PLT: 385 10^3/μL
  RBC: 6.1e+06 µL⁻¹
  RCDW: 13%
  Retic: 1.1%
  WBC: 10500 µL⁻¹
  MPV: 8.1 fL
[8]
  A/G ratio: 1.5
[9]
  UALB: 0.4 mg/dL
  UCRE: 69 mg/dL
  UTP: 12 mg/dL

## 1198728 (TATTAGAGTATGTGGC; modified gapmer, further chemistry not given here) [compound 1198728]
[1]; 31.3 nM
  % UTC (Yap1 mRNA): 51 % UTC
[1]; 125.0 nM
  % UTC (Yap1 mRNA): 28 % UTC
[1]; 500.0 nM
  % UTC (Yap1 mRNA): 9 % UTC
[1]; 2000.00 nM
  % UTC (Yap1 mRNA): 3 % UTC
[1]
  IC50: < 30 nM
[2]
  Kidney weight: 2.9 g
  Liver weight: 15 g
  Spleen weight: 1.4 g
  body weight: 381 g
[3]; 0.04 μM
  Yap1 mRNA, % UTC: 71 % UTC
[3]; 0.2 μM
  Yap1 mRNA, % UTC: 31 % UTC
[3]; 1 μM
  Yap1 mRNA, % UTC: 15 % UTC
[3]; 5 μM
  Yap1 mRNA, % UTC: 7 % UTC
[4]; 0.04 μM
  cell proliferation (luminescence) % UTC: 88 % UTC
[4]; 0.2 μM
  cell proliferation (luminescence) % UTC: 61 % UTC
[4]; 1 μM
  cell proliferation (luminescence) % UTC: 30 % UTC
[4]; 5 μM
  cell proliferation (luminescence) % UTC: 20 % UTC
[5]
  Yap1 mRNA in tumors, % control: 64 % control
[6]; Day 42 (pre-dose)
  Complement C3: 93 mg/dL
[6]; day 42 (24 hr post-dose)
  Complement C3: 90 mg/dL
[6]
  CRP: 4.0 mg/L
[7]
  BAS: 0.5%
  EOS: 2.2%
  HCT: 47%
  HGB: 14 g/dL
  LUC: 0.9%
  LYM: 64%
  MCH: 23 pg
  MCHC: 29 g/dL
  MCV: 80 fL
  MON: 2.9%
  NEU: 29%
  PLT: 428 10^3/μL
  RBC: 5.9e+06 µL⁻¹
  RCDW: 12%
  Retic: 1.3%
  WBC: 10700 µL⁻¹
  MPV: 8.0 fL
[8]
  A/G ratio: 1.3
[9]
  UALB: 0.3 mg/dL
  UCRE: 70 mg/dL
  UTP: 16 mg/dL
